Experimental data from PMC3933693, “Novel Inhibitors of Mitochondrial sn-Glycerol 3-phosphate Dehydrogenase” (PLoS ONE, 2014).

Columns and labels:
[1] = test system: flavin mononucleotide site of complex I (site IF) plus matrix NAD-linked dehydrogenases (site IF/DH); experiment: Site-specific H2O2 production from site IF/DH in skeletal muscle mitochondria; format: biochemical, rat; settings: primary screen, ∼2.5 µM, average of duplicates
Procedure, shortened: (§1)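 Isolated rat skeletal muscle mitochondria; H2O2 read by Amplex UltraRed with added SOD and HRP. Site IF/DH: 5 mM glutamate, 5 mM malate, 4 µM rotenone. Site IIF: palmitoylcarnitine or succinate with rotenone/antimycin A/myxothiazol. Site IIIQo: succinate, rotenone, antimycin A. Screen at 2.5 µM, normalised as % change from DMSO.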

[2] = test system: ubiquinone-binding site of complex I (site IQ); experiment: Site-specific H2O2 production from site IQ in skeletal muscle mitochondria; format: biochemical, rat;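 also: H2O2 from superoxide detected by Amplex UltraRed fluorescence with added superoxide dismutase and horseradish peroxidase, endpoint read 30–40 min after substrate addition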
Description: Superoxide was measured as H2O2 after dismutation by endogenous or exogenous superoxide dismutase. Rates of total superoxide/H2O2 production were measured fluorimetrically using Amplex UltraRed in the presence of exogenous superoxide dismutase and horseradish peroxidase in a Varian Cary Eclipse fluorimeter as previously described [27]. Rates of production from specific sites were determined as previously described using the following eight conditions: flavin mononucleotide site of complex I (site IF) plus matrix NAD-linked dehydrogenases (collectively "site IF/DH") with 5 mM glutamate, 5 mM malate, and 4 µM rotenone [28]; ubiquinone-binding site of complex I (site IQ) with either 0.5 or 5 mM succinate [29]; flavin site of complex II (site IIF) with either 15 µM palmitoylcarnitine, 2.5 µM antimycin A, and 2 µM myxothiazol or 0.5 mM succinate, 4 µM rotenone, 2.5 µM antimycin A, and 2 µM myxothiazol [30], [31]; mGPDH with 1.7 mM glycerol phosphate, 4 µM rotenone, 2.5 µM antimycin A, 2 µM myxothiazol, 1 mM malonate, and 250 nM free calcium; outer ubiquinone-binding site of complex III (site IIIQo) with either 0.5 or 5 mM succinate, 4 µM rotenone and 2.5 µM antimycin A [32]. Candidate small-molecule inhibitors were added prior to the start of measurements and H2O2 calibration curves were performed in the presence of tested compounds.
3,200 compounds were tested initially at 2.5 µM (0.025% DMSO final) in duplicate on different plates against a panel of five distinct assays of site-specific superoxide/H2O2 production as described in the previous section with minor changes. […] Endpoint fluorescence was measured on a Perkin Elmer Victor V3 fluorescent plate reader. The fluorescence intensity of each well was normalized as % change from the average of eight DMSO controls on the same plate. Duplicate wells of each of four modulators of mitochondrial metabolism known to inhibit specific sites of superoxide/H2O2 production were included on each plate as positive controls and the resulting fluorescence levels set as −100% change from DMSO controls. Known inhibitors included 20 mM aspartate (for site IF/DH), 1 µM FCCP (for site IQ), 10 mM malonate (for site IIF), and 2 µM myxothiazol (for site IIIQo). The background fluorescence of the FCCP wells in the site IQ assay was used to normalize mGPDH plates run in parallel. To minimize position-dependent effects across each assay plate, Tukey’s two-way median polish was applied to fluorescence values after initial normalization [35], [36]. Tukey’s polish is an iterative subtraction of the median row and column values from each well’s given row or column. The procedure is repeated until sequential medians for each row and column are zero and positional gradients in fluorescence are eliminated.
These 20 compounds were tested in duplicate at 0.08–80 µM (0.1% DMSO final) in microplate format for effects on site-specific H2O2 production as described above. […] Plates were incubated in the dark at room temperature for 30–40 min (H2O2) or 10–15 min (ΔΨm) after the addition of substrate, and endpoint fluorescence was measured on the Victor plate reader. Endpoints were chosen for the H2O2 assays to provide good signal-to-noise ratios and linear rates of change without the indicator dye limiting the reaction.

[3] = target: T1, outer ubiquinone-binding site of complex III (site IIIQo) (Rattus norvegicus, UniProt P00159+P20788); experiment: Site-specific H2O2 production from site IIIQo in skeletal muscle mitochondria; format: biochemical; settings: primary screen, ∼2.5 µM, average of duplicates; 5 mM succinate
T1 construct: from tissue; host or cells: skeletal muscle mitochondria
Procedure, shortened: as §1

[4] = test system: skeletal muscle mitochondria; experiment: Mitochondrial membrane potential (ΔΨm, TMRM) powered by glutamate plus malate; format: biochemical, rat
[5] = test system: skeletal muscle mitochondria; experiment: Mitochondrial membrane potential (ΔΨm, TMRM) powered by glycerol phosphate; format: biochemical, rat
Description: Mitochondrial membrane potential (ΔΨm) was estimated fluorimetrically as described previously [33] on the Varian fluorimeter, except the potentiometric dye TMRM was used in quench-mode in place of safranine O [34]. […] The effect of putative small-molecule inhibitors was normalized as the % change in fluorescence between vehicle treatment and complete depolarization by the uncoupler carbonyl cyanide-4-(trifluoromethoxy)phenylhydrazone (FCCP, 2 µM) added at the end of each run. When indicated, the K^+/H^+ exchanger nigericin (80 ng ⋅ ml^−1) was added to collapse the pH gradient across the mitochondrial inner membrane (ΔpH) and maximize ΔΨm.
All assays were performed with stirring at 37°C.
Additionally, four microplate assays for ΔΨm were run in parallel to the H2O2 assays. These assays were as described under “Measurement of mitochondrial H2O2 production and membrane potential” except that each substrate condition was assayed in a separate microplate. […] Plates were incubated in the dark at room temperature for 30–40 min (H2O2) or 10–15 min (ΔΨm) after the addition of substrate, and endpoint fluorescence was measured on the Victor plate reader. […] Endpoints for the ΔΨm assays were determined in pilot experiments as the times for TMRM accumulation to reach a steady state. At room temperature, this was typically ∼ 5 min and remained stable for at least 30 min. Endpoint fluorescence values were normalized as described in the previous section with wells containing FCCP serving as positive controls for the ΔΨm assays.

[6] = test system: skeletal muscle mitochondria; experiment: Mitochondrial respiration (Seahorse XF24) in plate-attached skeletal muscle mitochondria; format: biochemical, rat
Description: The effects of small-molecule inhibitors on respiration were tested in plate-attached skeletal muscle mitochondria using a Seahorse XF24 Analyzer according to published protocols. Briefly, mitochondria (2 or 4 µg protein) were attached to Seahorse assay plates by centrifugation in a mannitol and sucrose-based medium (Seahorse MAS buffer) containing 0.3% (w/v) BSA without or with 250 nM free calcium at pH 7.0. […] Compounds were added in these media just prior to loading the assay plate into the Seahorse instrument. Additions were made to set respiration in basal state 2 (substrate only), phosphorylating state 3 (5 mM ADP), non-phosphorylating state 4o (0.5 ug ⋅ mL^−1 oligomycin), and to reveal the non-mitochondrial rate (2 µM myxothiazol and 2.5 µM antimycin A). Each concentration of compound was tested in at least two wells on each plate. At least three biological replicates of each titration in each substrate condition were performed.

[7] = test system: STHdhQ7 cells; experiment: Live cell imaging of iGP-1 fluorescence (ability to cross cellular membranes); format: cell-based; settings: 100 µM; intrinsic fluorescence in live cells
Description: The ability of iGP-1 to cross cellular membranes was evaluated in STHdhQ7 cells cultured at 33°C as described. Cells were seeded on collagen-coated, Lab-Tek chambered coverglass (Nunc) 48 h before use. Prior to imaging, cells were cultured for 45 min with 65 nM LysoTracker Red ±250 nM bafilomycin A1. Medium was then replaced with imaging buffer (120 mM NaCl, 3.5 mM KCl, 0.4 mM KH2PO4, 20 mM TES, 5 mM NaHCO3, 1.2 mM Na2SO4, 1.5 mM CaCl2, 0.5 mM MgCl2, 2 mM Glucose, and 0.2% BSA, pH 7.4) containing DMSO, 250 nM bafilomycin A1 or 100 µM iGP-1. Cells were imaged on a Nikon Eclipse Ti-PFS inverted microscope equipped with a Cascade 512B camera (Photometrics, Tucson, AZ), a Plan Fluor 100X/1.3 oil objective, an LB-LS17 Xe-arc light source (attenuated), 10–3 excitation and emission filter wheels (Sutter Instruments, Novato, CA), and an MS-2000 linear encoded motorized stage (ASI, Eugene, OR). The filter sets, given as excitation, dichroic mirror, emission in nm/bandwidth, were, for iGP-1 (1 s exposure), 340/26, 409, 460/80 and for LysoTracker Red (100 ms exposure), 543/22, 562, 588/21 (all from Semrock, Rochester, NY). Image acquisition was controlled by NIS Elements 4.0 (Nikon, Melville, NY). Images of cell-free wells containing buffer with DMSO or iGP-1 were used for background subtraction in Image Analyst MKII (Novato, CA).

O=C(O)CCC(=O)Nc1ccc(-c2nc3ccccc3[nH]2)cc1 [iGP-1] was tested, and the “IF/DH (% change from DMSO)” value [1] was 4.1%, the “IQ H2O2 production with 5 mM Suc (% change at 80 μM)” value ([2]; 80 μM, 5 mM succinate) was -9% and the “concentration above which H2O2 production by site IQ starts to be inhibited” value ([2]; Fig. 6B) was “above 10 µM”. For the same compound, the “IQ (% change from DMSO)” value ([2]; primary screen, ∼2.5 µM, average of duplicates, 5 mM succinate) was 1.0%, the “IIIQo (% change from DMSO)” value [3] was -0.246% and the “ΔΨm with Glu + Mal + Nig (% change at 80 μM)” value ([4]; 80 μM, 5 mM glutamate, 5 mM malate, with nigericin) was 4%. For the same compound, the “ΔΨm with Glu + Mal (% change at 80 μM)” value ([4]; 80 μM, 5 mM glutamate, 5 mM malate, without nigericin) was 15%, the “ΔΨm (% change from DMSO)” value ([4]; primary screen, ∼2.5 µM, average of duplicates, glutamate and malate) was 0.154% and the “effect on ΔΨm powered by glutamate and malate” value ([4]; without or with nigericin) was “no effect”. For the same compound, the “ΔΨm with GP + Nig (% change at 80 μM)” value ([5]; 80 μM, 16.7 mM glycerol phosphate, 4 µM rotenone, nigericin) was -20%, the “effect on ΔΨm powered by glycerol phosphate” value ([5]; 8, 25, and 80 µM) was “significantly decreased” and the “effect on glycerol phosphate-dependent respiration” value ([6]; 25 and 80 µM, 16.7 mM glycerol phosphate, rotenone, 250 nM free calcium) was “significantly decreased”. For the same compound, the “effect on respiration on other substrates” value ([6]; pyruvate and malate, glutamate and malate, succinate and rotenone) was “without altering” and the “cell permeability” value [7] was “readily crosses cellular membranes”.
